Laboratory results from patent US20220323594A1, “LIPIDATED CATIONIC PEPTIDE-PEG COMPOSITIONS FOR NUCLEIC ACID DELIVERY” (NUTCRACKER THERAPEUTICS, INC., priority 2019, published 2022).

Assays:
[1] = Dynamic light scattering (DLS) of mRNA/peptoid formulations: particle size and polydispersity; format: physicochemical; details: Fluc mRNA/peptoid formulation; for Size PDI: size polydispersity index by DLS, 5:1 mass ratio; for Size (nm): volume average particle size/diameter by DLS, 5:1 mass ratio peptoid:cargo
Method: To prepare nanoparticle formulations, the amino lipidated peptoid is mixed by pipetting with nucleic acid at a mass ratio between approximately 1:1 (peptoid:cargo) and 20:1. Prior to formulation, amino lipidated peptoid and nucleic acid cargo were diluted in ethanol and acidic buffer (PBS adjusted to pH 5.5 with 0.1 M HCl) respectively to a volume ratio of 1:3 and to target a final cargo concentration of approximately 0.05 mg/mL to 0.2 mg/mL. The exemplary amino lipidated cationic peptoids described in Example 2 were combined with firefly luciferase (Fluc) mRNA to form nanoparticle compositions to be evaluated for therapeutic and/or prophylactic purposes in vitro or in vivo. The formulations were prepared according to the protocol of Example 3 and mixed by simple pipetting. The mRNA/peptoid formulation at a 5:1 mass ratio of peptoid:cargo were evaluated by dynamic light scattering (DLS) in order to determine the volume average particle size/diameter (nm) of the mRNA/peptoid complex and the size polydispersity index (PDI) within the formulation. The percentage of mRNA encapsulation for each formulation of the exemplary compounds were determined by fluorescence of the Qubit RNA HS (Invitrogen) dye before and after lysis of particles by Triton X-100.

[2] = mRNA encapsulation by fluorescence of Qubit RNA HS dye before and after lysis with Triton X-100; format: physicochemical; details: percentage of mRNA encapsulation; Fluc mRNA/peptoid formulation, 5:1 mass ratio
Method in brief: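 Encapsulation was measured by comparing Qubit RNA HS fluorescence of intact particles with that after Triton X-100 lysis. Particles were amino-lipidated cationic peptoids complexed with firefly luciferase mRNA at 5:1 peptoid:cargo by mass, mixed by pipetting.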

HeLa cells [3] = assay: In vitro expression of firefly luciferase (Fluc) after treatment with Fluc mRNA/amino lipidated peptoid formulations, no PEG or 2% DMG-PEG2000; format: cell-based
Method in brief: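 HeLa cells received 100 ng/well Fluc mRNA complexed with amino lipidated peptoid at 5:1 peptoid:mRNA (w/w), either peptoid alone or with 2% w/w DMG-PEG2000. Expression quantified as RLU by luminescence at 6 and 24 h.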

HeLa cells [4] = assay: In vitro Fluc expression with variable peptoid:mRNA mass ratio, 2% DMG-PEG2000; format: cell-based; details: 24 h; for Observed Luciferase Expression (RLU) for Given Formulation Mass Ratio 2:1: 2% (w/w) DMG-PEG2000, peptoid:mRNA 2:1; for Observed Luciferase Expression (RLU) for Given Formulation Mass Ratio 3.5:1: 2% (w/w) DMG-PEG2000, peptoid:mRNA 3.5:1; for Observed Luciferase Expression (RLU) for Given Formulation Mass Ratio 5:1: 2% (w/w) DMG-PEG2000, peptoid:mRNA 5:1; for Observed Luciferase Expression (RLU) for Given Formulation Mass Ratio 7.5:1: 2% (w/w) DMG-PEG2000, peptoid:mRNA 7.5:1
Method in brief: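 HeLa cells exposed 24 hours to amino lipidated peptoid/Fluc mRNA formulations containing 2% w/w DMG-PEG2000 (relative to peptoid), across peptoid:mRNA mass ratios of 2:1 to 7.5:1. Read-out: average luciferase bioluminescence (RLU).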

[5] = MTT viability assay after treatment with Fluc mRNA/amino lipidated peptoid formulations; format: cell-based; details: human, HeLa cells
Method in brief: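 Viability relative to untreated cells came from the formazan read-out after 2 h with 1.5 mg/mL MTT and acidic isopropanol/Triton lysis. The MTT step followed an 8 h exposure to 100 ng/well Fluc mRNA in 5:1 peptoid:mRNA, 2% DMG-PEG2000 formulations and a further 48 h of culture.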

[6] = no PEG, peptoid:Fluc mRNA 5:1 w/w, 100 ng/well, 6 h of treatment
[7] = no PEG, peptoid:Fluc mRNA 5:1 w/w, 100 ng/well, 24 h of treatment
[8] = with 2% (w/w) DMG-PEG2000, peptoid:mRNA 5:1, 6 h after treatment
[9] = with 2% (w/w) DMG-PEG2000, peptoid:mRNA 5:1, 24 h after treatment

| SMILES | Size PDI [1] | Size (nm) [1] | % Encapsulation [2] | Luciferase Expression (RLU) 6 h (HeLa cells [3]; [6]) | Luciferase Expression (RLU) 24 h (HeLa cells [3]; [7]) | Luciferase Expression (RLU) 6 h (HeLa cells [3]; [8]) | Luciferase Expression (RLU) 24 h (HeLa cells [3]; [9]) | Observed Luciferase Expression (RLU) for Given Formulation Mass Ratio 2:1 (HeLa cells [4]) | Observed Luciferase Expression (RLU) for Given Formulation Mass Ratio 3.5:1 (HeLa cells [4]) | Observed Luciferase Expression (RLU) for Given Formulation Mass Ratio 5:1 (HeLa cells [4]) | Observed Luciferase Expression (RLU) for Given Formulation Mass Ratio 7.5:1 (HeLa cells [4]) | viability at 8 h, 500 ng/well ([5]; Relative Viability (%) 2% PEG) | viability at 8 h, 500 ng/well ([5]; Relative Viability (%) No PEG) |
| --- | --- | --- | --- | --- | --- | --- | --- | --- | --- | --- | --- | --- | --- |
| CCCCCCCCCCN(CC(N)=O)C(=O)CN(CCCCCCCCCC)C(=O)CN(CCCCCCCCCC)C(=O)CN(CCCCCCCCCC)C(=O)CN(CCc1ccccc1)C(=O)CN(CCc1ccccc1)C(=O)CN(CCNC)C(=O)CN(CCc1ccccc1)C(=O)CN(CCc1ccccc1)C(=O)CN(CCNC)C(=O)CN(CCc1ccccc1)C(=O)CN(CCc1ccccc1)C(=O)CNCCNC [Compound 25] | 0.021 | 773.3 nm | 8.4% | 3.93E+02 RLU | 2.07E+03 RLU | 1.81E+03 RLU | 7.30E+02 RLU | 3.86E+02 RLU | 8.41E+03 RLU | 5.03E+03 RLU | 5.66E+03 RLU | 85.9% | 77.9% |
| CCCCCCCCCCN(CC(N)=O)C(=O)CN(CCCCCCCCCC)C(=O)CN(CCc1ccccc1)C(=O)CN(CCc1ccccc1)C(=O)CN(CC1CCCN1)C(=O)CN(CCc1ccccc1)C(=O)CN(CCc1ccccc1)C(=O)CN(CC1CCCN1)C(=O)CN(CCc1ccccc1)C(=O)CN(CCc1ccccc1)C(=O)CNCC1CCCN1 (stereo not shown) [Compound 36] | 0.127 | 374.4 nm | 71.5% | 9.34E+03 RLU | 7.78E+03 RLU | 3.36E+02 RLU | 7.45E+02 RLU | 9.24E+02 RLU | 4.18E+02 RLU | 5.17E+02 RLU | 6.71E+02 RLU | 108% | 93.6% |
| CCCCCCCCCCCCN(CC(N)=O)C(=O)CN(CCCCCCCCCCCC)C(=O)CN(CCc1ccccc1)C(=O)CN(CCc1ccccc1)C(=O)CN(CCN)C(=O)CN(CCc1ccccc1)C(=O)CN(CCc1ccccc1)C(=O)CN(CCN)C(=O)CN(CCc1ccccc1)C(=O)CN(CCc1ccccc1)C(=O)CNCCN [Compound 3] | 0.247 | 255.3 nm | 95.9% | 2.27E+02 RLU | 2.99E+02 RLU | 3.14E+02 RLU | 4.68E+02 RLU | 4.42E+03 RLU | 2.56E+03 RLU | 4.53E+03 RLU | 2.69E+03 RLU | 95.3% | 91.2% |
| CCCCCCCCCCN(CC(N)=O)C(=O)CN(CCCCCCCCCC)C(=O)CN(CCCCCCCCCC)C(=O)CN(CCCCCCCCCC)C(=O)CN(CCCCCCCCCC)C(=O)CN(CCCCCCCCCC)C(=O)CN(CCc1ccccc1)C(=O)CN(CCc1ccccc1)C(=O)CN(CCN)C(=O)CN(CCc1ccccc1)C(=O)CN(CCc1ccccc1)C(=O)CN(CCN)C(=O)CN(CCc1ccccc1)C(=O)CN(CCc1ccccc1)C(=O)CNCCN [Compound 22] | 0.538 | 748.2 nm | 65.4% | 6.63E+01 RLU | 6.77E+01 RLU | 9.23E+01 RLU | 2.13E+01 RLU | 3.53E+01 RLU | 8.83E+01 RLU | 2.50E+02 RLU | 5.80E+02 RLU | 118% | 104% |
| CCCCCCCCN(CC(N)=O)C(=O)CN(CCCCCCCC)C(=O)CN(CCc1ccccc1)C(=O)CN(CCc1ccccc1)C(=O)CN(CCN)C(=O)CN(CCc1ccccc1)C(=O)CN(CCc1ccccc1)C(=O)CN(CCN)C(=O)CN(CCc1ccccc1)C(=O)CN(CCc1ccccc1)C(=O)CNCCN [Compound 1] | 0.047 | 356.9 nm | 90.1% | 1.22E+02 RLU | 4.00E+01 RLU | 2.09E+02 RLU | 8.67E+00 RLU | 6.82E+02 RLU | 3.12E+02 RLU | 2.31E+02 RLU | 3.35E+01 RLU | 88.1% | 97.4% |
| CCCCCCCCCCN(CC(N)=O)C(=O)CN(CCCCCCCCCC)C(=O)CN(CCc1ccccc1)C(=O)CN(CCc1ccccc1)C(=O)CN(CCN)C(=O)CN(CCc1ccccc1)C(=O)CN(CCc1ccccc1)C(=O)CN(CCN)C(=O)CN(CCc1ccccc1)C(=O)CN(CCc1ccccc1)C(=O)CN(CCN)C(=O)CN(CCc1ccccc1)C(=O)CN(CCc1ccccc1)C(=O)CNCCN [Compound 11] | 0.038 | 354.9 nm | 87.8% | 1.15E+03 RLU | 1.22E+03 RLU | 3.90E+02 RLU | 5.23E+02 RLU | 2.79E+04 RLU | 3.14E+04 RLU | 4.48E+04 RLU | 4.36E+03 RLU | 104% | 104% |
| CCCCCCCCCCCCN(CC(N)=O)C(=O)CN(CCCCCCCCCCCC)C(=O)CN(CCc1ccc(OC)cc1)C(=O)CN(CCc1ccc(OC)cc1)C(=O)CN(CCN)C(=O)CN(CCc1ccc(OC)cc1)C(=O)CN(CCc1ccc(OC)cc1)C(=O)CN(CCN)C(=O)CN(CCc1ccc(OC)cc1)C(=O)CN(CCc1ccc(OC)cc1)C(=O)CNCCN [Compound 4] | 0.191 | 326.7 nm | 99.0% | 1.96E+02 RLU | 1.13E+02 RLU | 3.16E+02 RLU | 3.09E+02 RLU | 3.27E+03 RLU | 1.32E+03 RLU | 7.84E+03 RLU | 1.14E+03 RLU | 89.7% | 90.4% |
